Measurements: US6696456B1, “Beta disubstituted metalloprotease inhibitors” (The Procter & Gamble Company, priority 1999, dated 2004)

How the values were obtained:
[1] = test system: human subject suffering from rheumatoid arthritis; experiment: Example A: oral tablet treatment of a subject with rheumatoid arthritis; format: in vivo; settings: tablet with 15 mg compound, three tablets per day orally for 2 years, 60 kg human
Procedure: A tablet composition for oral administration, according to the present invention, is made comprising:
A human subject weighing 60 kg (132 lbs), suffering from rheumatoid arthritis, is treated by a method of this invention. Specifically, for 2 years, a regimen of three tablets per day is administered orally to said subject.

[2] = test system: human subject suffering from osteoarthritis; experiment: Example B: oral capsule treatment of a subject with osteoarthritis; format: in vivo; settings: capsule with 70 mg compound daily for 5 years, 90 kg human
Procedure: A capsule for oral administration, according to the present invention, is made comprising:
A human subject weighing 90 kg (198 lbs.), suffering from osteoarthritis, is treated by a method of this invention. Specifically, for 5 years, the above capsule, which contains 70 mg of the compound of Example 4, is administered daily to said subject.

| Structure (SMILES) | inflammation, mobility and pain at the end of the treatment period [1] | erosion/fibrillation of the articular cartilage via x-ray, arthroscopy and/or MRI [2] |
| --- | --- | --- |
| COc1ccc(-c2ccc(S(=O)(=O)N[C@@H](C(=O)O)[C@H](OCc3ccc(C)cc3)c3nccs3)cc2)cc1 [Example 1, (2R,3S)-2-(4′ -Methoxy-biphenyl-4-sulfonylamino)-3-(4-methyl-benzyloxy)-3-thiazol-2-yl-propionic Acid] | reduced inflammation and improved mobility without concomitant pain |  |
| CCS[C@H](c1ccccc1)[C@@H](NS(=O)(=O)c1ccc(-c2ccc(F)cc2)cc1)C(=O)O [Example 4, (2S,3R)-3-Ethylsulfanyl-2-(4′-fluoro-biphenyl-4-sulfonylamino)-3-phenyl-propionic Acid] |  | no further advancement of erosion/fibrillation of the articular cartilage |
